PubChem BioAssay (NCI)
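Following 48 hours of exposure in 96-well plates, responses at five concentrations were used to interpolate endpoints linearly. At the TGI there is no net growth.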

Assays:
Assay in all cases: growth of human tumour cells (NCI), 48 h
MALME-3M melanoma = test system: MALME-3M melanoma
HL-60(TB) leukemia = test system: HL-60(TB) leukemia
OVCAR-4 ovarian = test system: OVCAR-4 ovarian
SNB-19 CNS = test system: SNB-19 CNS
KM12 colon = test system: KM12 colon
MCF7 breast = test system: MCF7 breast
CAKI-1 renal = test system: CAKI-1 renal
SF-295 CNS = test system: SF-295 CNS
A549 NSCLC = test system: A549 NSCLC
BT-549 breast = test system: BT-549 breast

Structure (SMILES) | TGI (MALME-3M melanoma) | TGI (HL-60(TB) leukemia) | TGI (OVCAR-4 ovarian) | TGI (SNB-19 CNS) | TGI (KM12 colon) | TGI (MCF7 breast) | TGI (CAKI-1 renal) | TGI (SF-295 CNS) | TGI (A549 NSCLC) | TGI (BT-549 breast)
NC1=CC(=O)c2c(O)ccc(O)c2C1=O | 7.08 µM | 6.83 µM | 23.1 µM | > 65.9 µM | > 78.7 µM | 18.6 µM | 66.8 µM | 40.9 µM | 49.6 µM | 30.9 µM
CN(CCN1CCCC1)C1CCc2cc(Cl)c(Cl)cc2C1 (stereo not given) | 33.6 µM | 37.4 µM | 51.1 µM | 38.7 µM | 40.4 µM | 29 µM | 33.6 µM | 29.1 µM | 32.4 µM | 28.5 µM
COc1ccc(C2Oc3ccc(Cl)cc3C=C2[N+](=O)[O-])cc1 (stereo not given) | > 100 µM | > 100 µM | > 100 µM | > 100 µM | > 100 µM | > 100 µM | > 100 µM | > 100 µM | > 100 µM | > 100 µM
Cc1ccc(-c2cc(-c3ccco3)c(C#N)c(=S)[nH]2)cc1 | > 100 µM | > 100 µM | > 100 µM | > 100 µM | > 100 µM | > 100 µM | > 100 µM | > 100 µM | > 100 µM | > 100 µM
Cc1c(C)n(-c2ccccc2)c2nc(S(C)=O)nc(S(C)=O)c12 (stereo not given) | 4.09 µM | 3.39 µM | 17.4 µM | 31.3 µM | 28.1 µM | 7.1 µM | 2.66 µM | 32.2 µM | 31.7 µM | 4.13 µM
c1ccc(C2=NC3OC2c2ccccc23)cc1 (stereo not given) | > 10 µM | > 10 µM | > 10 µM | > 10 µM | > 10 µM | > 10 µM | > 10 µM | > 10 µM | > 10 µM | > 10 µM
COC(=O)c1ccccc1C1CN=NC12Cc1c(ccc(C)c1C)C2=O (stereo not given) | > 100 µM | > 100 µM | > 100 µM | > 100 µM | > 100 µM | > 100 µM | > 100 µM | > 100 µM | > 100 µM | > 100 µM
COc1ccc(C)cc1N1C(=O)C2ON(Cc3ccc(CC(N)=O)cc3)C(c3c4ccccc4c(Cl)c4ccccc34)C2C1=O (stereo not given) | > 100 µM | > 100 µM | 84.6 µM | > 100 µM | 29.1 µM | > 100 µM | 76.5 µM | 69.1 µM | > 100 µM | 74.5 µM
CCCCCCN(CCCCCC)C(=S)N/N=C(\C)c1ccccn1 | 3.17 µM | 2.3 µM | 3.16 µM | 3.92 µM | 2.73 µM | 3.16 µM | 2.68 µM | 3.19 µM | 3.66 µM | 3.8 µM
CC(=O)Nc1nc(Cl)cc(NCC2(CO)CCC2)n1 | > 100 µM | > 100 µM | > 100 µM | > 100 µM | > 100 µM | > 100 µM | > 100 µM | > 100 µM | > 100 µM | > 100 µM
COC(=O)/C=C(\C)CC/C=C(\C)CCC1OC1(C)C (stereo not given) | 29.1 µM | 6.6 µM | 22.2 µM | > 75 µM | 20.8 µM | 21.8 µM | 22.3 µM | 21.3 µM | 24.1 µM | 21.8 µM
O=C(COc1ccc(OCC(=O)N/N=C/c2ccc(-c3ccc(Cl)cc3Cl)o2)c(Cl)c1)N/N=C/c1ccc(-c2ccc(Cl)cc2Cl)o1 | > 100 µM | 70.6 µM | > 100 µM | > 100 µM | > 100 µM | > 100 µM | > 100 µM | > 100 µM | > 100 µM | > 100 µM
CC(=O)c1ccc(Oc2c3ccccc3nc3ccccc23)cc1 | 27.2 µM | 0.463 µM | 18.6 µM | 37.8 µM | 22.7 µM | 12.1 µM | 17.3 µM | 28.2 µM | 31.7 µM | 27.1 µM
NS(=O)(=O)c1nnc(NC(=O)N(c2ccccc2)c2ccccc2)s1 | 62.5 µM | 48.2 µM | > 100 µM | > 100 µM | 56.8 µM | > 100 µM | > 100 µM | > 100 µM | > 100 µM | 42.2 µM
Cn1c2ccccc2n2c3ncccc3c(=O)c(C#N)c12 | > 100 µM | > 100 µM | > 100 µM | > 62.5 µM | > 100 µM | 21.1 µM | > 77.3 µM | 48.4 µM | > 36.7 µM | 57.3 µM
O=c1oc2ccc3ccccc3c2cc1-c1cn2ccsc2n1 | 41.1 µM | 51.7 µM | 40.7 µM | > 100 µM | 66.2 µM | 19 µM | 59 µM | > 100 µM | > 100 µM | 32.6 µM
CC(C)C(Br)CCC1=CCC(Br)(Br)C1 (stereo not given) | 27.9 µM | > 100 µM | 24.2 µM | 32 µM | 27.5 µM | 23.9 µM | 33.7 µM | 33.4 µM | 33.8 µM | 34.9 µM
